Test results published in US20260167926A1, “SPINAL CORD INJURY TREATMENT NEUROSPHERE” (KEIO UNIVERSITY, priority 2019, published 2026).

Legend:
[1] = test system: human iPS cell-derived neurospheres; test: Neurite length after differentiation of neurospheres into neurons; type: cell-based; conditions: neurospheres cultured one day with inhibitor, then differentiated; 7th and 14th day; 201B7 and 414C2; compared to the untreated group
Procedure: Specifically, in an in vitro experimental system, human iPS cell-derived neurospheres were treated with a γ-secretase inhibitor and a p38 MAPK inhibitor to induce differentiation into neurons. Subsequently, the length of the neurite was measured and evaluated.
DAPT was used as the γ-secretase inhibitor. In addition, SB203580 (CAS Number: 152121-47-6) was used as the p38 MAPK inhibitor. First, human iPS cell-derived neurospheres were cultured for one day in the presence of the γ-secretase inhibitor alone, in the presence of the p38 MAPK inhibitor alone, or in the presence of the γ-secretase inhibitor and the p38 MAPK inhibitor.
Subsequently, various cells were seeded on a poly-L-ornithine/fibronectin-coated 48-well chamber slide (manufactured by Costar Corporation) at a cell density of 1×10^5 cells/mL, and the cells were cultured in a growth factor-free medium at in a 95% air environment at 37° C. and 5% CO2 for 14 days and were differentiated into neurons. Subsequently, on the 7th day and the 14th day after the initiation of differentiation induction, the cells were fixed with 4% paraformaldehyde in 0.1 M PBS, and the length of the neurite was measured.
FIG. 13A is a graph showing the results for neurons derived from 201B7 cells (n=5). In addition, FIG. 13B is a graph showing the results for neurons derived from 414C2 cells (n=5).

p38 MAPK [2] = test: Immunostaining of phosphorylated p38 MAPK in neurons derived from 201B7 neurospheres; type: cell-based, human; conditions: 201B7 neurospheres cultured one day at final concentration of 10 μM, differentiated 14 days
Procedure: Phosphorylation of p38 MAPK in human iPS cell-derived neurospheres treated with a γ-secretase inhibitor was examined.
Specifically, neurospheres derived from 201B7 cells, which are cells of a human iPS cell strain, were cultured for one day in the presence of a secretase inhibitor at a final concentration of 10 μM. Subsequently, the neurospheres were cultured in a growth factor-free medium in a 95% air environment at 37° C. and 5% CO2 for 14 days and were differentiated into nerurons. Subsequently, on the 14th day after the initiation of differentiation induction, the cells were fixed with 4% paraformaldehyde in 0.1 M PBS and observed. DAPT was used as the γ-secretase inhibitor. Immunostaining of phosphorylated p38 MAPK and βIII-tubulin was performed. In addition, Hoechst 33342 (CAS Number: 23491-52-3) was used to stain the cell nuclei.
FIG. 26 is representative microscopic images showing the results of immunostaining. In FIG. 26, “Pp38” represents phosphorylated p38 MAPK, and “Merge” indicates the results of superimposing microscopic images. The scale bar is 20 μm.

p38 MAPK [3] = test: Immunostaining of p38 MAPK, phosphorylated p38 MAPK and βIII-tubulin in differentiated cells; type: cell-based, human; conditions: 14 days after initiation of differentiation induction
Procedure: Immunostaining of p38 MAPK, phosphorylated p38 MAPK, and βIII-tubulin was performed using cells obtained 14 days after the initiation of differentiation induction. In addition, Hoechst 33342 (CAS Number: 23491-52-3) was used to stain the cell nuclei.
FIG. 14A and FIG. 14B are representative microscopic images showing the results of immunostaining of the cells in the GSI (+) group. In FIG. 14A and FIG. 14B, “Pp38” indicates phosphorylated p38 MAPK, and “Merge” indicates the results of superimposing microscopic images. The scale bar is 20μm.

SMILES	neurite outgrowth (length of the neurite) [1]	phosphorylation of p38 MAPK in neurons derived from the neurospheres (p38 MAPK [2])	localization of p38-positive region relative to βIII-tubulin-positive neurons (p38 MAPK [3])	localization of phosphorylated p38-positive region (p38 MAPK [3])
C[S+]([O-])c1ccc(-c2nc(-c3ccncc3)c(-c3ccc(F)cc3)[nH]2)cc1 (centres unmarked) [p38 MAPK inhibitor, SB203580]	significantly decreased			
C[C@H](NC(=O)Cc1cc(F)cc(F)c1)C(=O)N[C@H](C(=O)OC(C)(C)C)c1ccccc1 [γ-secretase inhibitor, DAPT]	significantly large	enhanced	co-localized	in the nucleus
